pIC50: −log10 of the molar value. Read-outs that look alike come from different tables or passages of the source.
How the values were obtained:
[1] = system: Pseudomonas aeruginosa efflux− (MB9799), IMP-1; assay type: cell-based; conditions: efflux− MB9799; imipenem at 2 μg/mL; in the presence of a class A, C, D serine β-lactamase inhibitor closely related to relebactam
Procedure, shortened: (§1)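 PAO1 pair, broth microdilution; fixed β-lactam (imipenem/ceftazidime) at ~CLSI breakpoint + fixed class A/C BLI for AmpC; serial MBLi titration; endpoint = MBLi conc. restoring susceptibility; MB9798:MB9799 ratio = efflux liability.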

VIM-1 = VIM-1 (Pseudomonas aeruginosa (strain ATCC 15692 / DSM 22644 / CIP 104116 / JCM 14847 / LMG 12228 / 1C / PRS 101 / PAO1), UniProt A0A0F7KYQ8); experiment: biochemical; conditions: CCF2-FA substrate, 30 pM enzyme, 2 hours at 25° C.
Procedure, shortened: (§2)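 Two-hour, 25° C incubation of enzyme with inhibitor and CCF2-FA (7-hydroxycoumarin–cephalosporin–fluorescein). Fluorescence read-out; IC50 via 4-parameter fit.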

[2] = system: Pseudomonas aeruginosa MB9798 vs MB9799; conditions: fold difference between efflux+ (MB9798) and efflux− (MB9799) strains; imipenem at 2 μg/mL
Procedure, shortened: as §1

NDM-1 = NDM-1 (Klebsiella pneumoniae, UniProt C7C422); experiment: biochemical; assay type: biochemical; conditions: fluorescence assay, CCF2-FA substrate, 1 pM enzyme, 2 hours at 25° C.; read-out: NDM-1 IC50
Chain of NDM-1 (C7C422 whole entry, looked up, species assumed): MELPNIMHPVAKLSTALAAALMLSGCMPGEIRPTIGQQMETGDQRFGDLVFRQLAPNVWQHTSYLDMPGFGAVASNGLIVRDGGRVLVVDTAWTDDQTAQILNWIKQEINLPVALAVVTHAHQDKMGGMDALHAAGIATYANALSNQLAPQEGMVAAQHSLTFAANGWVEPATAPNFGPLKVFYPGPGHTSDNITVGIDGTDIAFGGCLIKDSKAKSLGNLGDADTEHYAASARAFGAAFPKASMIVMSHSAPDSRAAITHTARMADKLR
Procedure, shortened: as §2

IMP-1 = IMP-1 (Serratia marcescens, UniProt P52699); experiment: biochemical; assay type: biochemical; conditions: fluorescence assay, CCF2-FA substrate, 2 pM enzyme, 2 hours at 25° C.; read-out: IMP-1 IC50
Chain of IMP-1 (P52699 whole entry, looked up, species assumed): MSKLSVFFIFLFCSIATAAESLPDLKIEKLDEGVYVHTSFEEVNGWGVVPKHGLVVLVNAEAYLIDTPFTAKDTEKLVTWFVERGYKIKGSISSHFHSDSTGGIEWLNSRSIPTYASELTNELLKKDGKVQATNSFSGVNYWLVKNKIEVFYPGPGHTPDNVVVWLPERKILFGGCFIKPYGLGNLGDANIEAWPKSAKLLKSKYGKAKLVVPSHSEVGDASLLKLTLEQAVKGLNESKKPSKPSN
Procedure, shortened: as §2

[3] = system: Escherichia coli expressing NDM-1 (CLB30005, CLB30016); assay type: cell-based; conditions: NDM-1 strain, with imipenem 1 μg/ml, 95% inhibition of growth
Procedure, shortened: (§3)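 Colonies grown overnight on blood agar at 35° C were suspended in saline, diluted 1:100 into 1.1×CAMHB and dispensed. Imipenem was added to 1 μg/ml, then test compound. After 22 hours to 24 hours at 35° C, absorbance was recorded.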

[4] = system: Klebsiella pneumoniae expressing VIM-1 (IHMA599644); assay type: cell-based; conditions: VIM-1 strain IHMA599644, with imipenem 1 μg/ml, 95% inhibition of growth
Procedure, shortened: as §3

[5] = system: Serratia marcescens expressing IMP-1 (CL5741); assay type: cell-based; conditions: IMP-1 strain CL5741, with imipenem 1 μg/ml, 95% inhibition of growth
Procedure, shortened: as §3

[6] = system: Pseudomonas aeruginosa efflux+ (MB9798), IMP-1; assay type: cell-based; design: Concentration of metallo-β-lactamase inhibitor which restores susceptibility of efflux + (MB9798) strain to imipenem: unit not given here; conditions: efflux+ MB9798; imipenem at 2 μg/mL; in the presence of a class A, C, D serine β-lactamase inhibitor closely related to relebactam
Procedure, shortened: as §1

[7] = fluorescence assay, read-out: VIM-1 IC50

NC[C@@H](CO)NS(=O)(=O)c1ccc(-c2ccc(N)nc2)c(-c2nn[nH]n2)c1S(N)(=O)=O [Example 409]
Concentration of metallo-β-lactamase inhibitor which restores susceptibility of efflux − (MB9799) strain to imipenem [1]: 1.563
pIC50 (VIM-1; [7]): 9.74
Efflux ratio [2]: 1.00
pIC50 (NDM-1): 9.95
pIC50 (IMP-1): 9.77
Escherichia coli MITC95 [3]: 0.1953 µM
Klebsiella pneumoniae MITC95 [4]: 3.125 µM
Serratia marcescens MITC95 [5]: 1.563 µM
Concentration of metallo-β-lactamase inhibitor which restores susceptibility of efflux + (MB9798) strain to imipenem [6]: 1.563

Nc1ccc(-c2ccc(S(=O)(=O)N[C@H]3CNC[C@H]3O)c(S(N)(=O)=O)c2-c2nn[nH]n2)cn1 [Example 410]
Concentration of metallo-β-lactamase inhibitor which restores susceptibility of efflux − (MB9799) strain to imipenem [1]: 0.7813
pIC50 (VIM-1; [7]): 9.43
Efflux ratio [2]: 1.00
pIC50 (NDM-1): 9.49
pIC50 (IMP-1): 9.17
Escherichia coli MITC95 [3]: 0.3906 µM
Klebsiella pneumoniae MITC95 [4]: 1.563 µM
Serratia marcescens MITC95 [5]: 0.7813 µM
Concentration of metallo-β-lactamase inhibitor which restores susceptibility of efflux + (MB9798) strain to imipenem [6]: 0.7813

Nc1ccc(-c2ccc(S(=O)(=O)N[C@H]3CN[C@H](CO)C3)c(S(N)(=O)=O)c2-c2nn[nH]n2)cn1 [Example 411]
Concentration of metallo-β-lactamase inhibitor which restores susceptibility of efflux − (MB9799) strain to imipenem [1]: 1.563
pIC50 (VIM-1; [7]): 9.75
Efflux ratio [2]: 1.00
pIC50 (NDM-1): 9.93
pIC50 (IMP-1): 9.39
Escherichia coli MITC95 [3]: 0.7813 µM
Klebsiella pneumoniae MITC95 [4]: 3.125 µM
Serratia marcescens MITC95 [5]: 1.563 µM
Concentration of metallo-β-lactamase inhibitor which restores susceptibility of efflux + (MB9798) strain to imipenem [6]: 1.563

NS(=O)(=O)c1c(S(=O)(=O)N[C@@H]2CNC[C@@H]2O)ccc(-c2cccc3[nH]nnc23)c1-c1nn[nH]n1 [Example 412]
Concentration of metallo-β-lactamase inhibitor which restores susceptibility of efflux − (MB9799) strain to imipenem [1]: 3.125
pIC50 (VIM-1; [7]): 9.49
Efflux ratio [2]: 0.50
pIC50 (NDM-1): 9.97
pIC50 (IMP-1): 8.59
Escherichia coli MITC95 [3]: 3.125 µM
Klebsiella pneumoniae MITC95 [4]: 6.25 µM
Serratia marcescens MITC95 [5]: 3.125 µM
Concentration of metallo-β-lactamase inhibitor which restores susceptibility of efflux + (MB9798) strain to imipenem [6]: 1.563

NC[C@H](N)CNS(=O)(=O)c1ccc(-c2ccc(N)nc2)c(-c2nn[nH]n2)c1S(N)(=O)=O [Example 415]
Concentration of metallo-β-lactamase inhibitor which restores susceptibility of efflux − (MB9799) strain to imipenem [1]: 1.563
pIC50 (VIM-1; [7]): 9.37
Efflux ratio [2]: 1.00
pIC50 (NDM-1): 9.44
pIC50 (IMP-1): 9.10
Escherichia coli MITC95 [3]: 0.1953 µM
Klebsiella pneumoniae MITC95 [4]: 3.125 µM
Serratia marcescens MITC95 [5]: 1.172 µM
Concentration of metallo-β-lactamase inhibitor which restores susceptibility of efflux + (MB9798) strain to imipenem [6]: 1.563

NC[C@@H](N)CNS(=O)(=O)c1ccc(-c2ccc(N)nc2)c(-c2nn[nH]n2)c1S(N)(=O)=O [Example 416]
Concentration of metallo-β-lactamase inhibitor which restores susceptibility of efflux − (MB9799) strain to imipenem [1]: 3.125
pIC50 (VIM-1; [7]): 9.17
Efflux ratio [2]: 1.00
pIC50 (NDM-1): 9.04
pIC50 (IMP-1): 8.87
Escherichia coli MITC95 [3]: 0.3906 µM
Klebsiella pneumoniae MITC95 [4]: 6.25 µM
Serratia marcescens MITC95 [5]: 1.563 µM
Concentration of metallo-β-lactamase inhibitor which restores susceptibility of efflux + (MB9798) strain to imipenem [6]: 3.125

NC[C@H](O)CNS(=O)(=O)c1ccc(-c2ccc3nccn3c2)c(-c2nn[nH]n2)c1S(N)(=O)=O [Example 418]
Concentration of metallo-β-lactamase inhibitor which restores susceptibility of efflux − (MB9799) strain to imipenem [1]: 0.7813
pIC50 (VIM-1; [7]): 9.95
Efflux ratio [2]: 2.00
pIC50 (NDM-1): 9.82
pIC50 (IMP-1): 9.08
Escherichia coli MITC95 [3]: 0.3906 µM
Klebsiella pneumoniae MITC95 [4]: 1.563 µM
Serratia marcescens MITC95 [5]: 0.7813 µM
Concentration of metallo-β-lactamase inhibitor which restores susceptibility of efflux + (MB9798) strain to imipenem [6]: 1.563

NC[C@@H](O)CNS(=O)(=O)c1ccc(-c2ccc3nccn3c2)c(-c2nn[nH]n2)c1S(N)(=O)=O [Example 420]
Concentration of metallo-β-lactamase inhibitor which restores susceptibility of efflux − (MB9799) strain to imipenem [1]: 0.7813
pIC50 (VIM-1; [7]): 9.90
Efflux ratio [2]: 2.00
pIC50 (NDM-1): 9.64
pIC50 (IMP-1): 9.01
Escherichia coli MITC95 [3]: 0.3906 µM
Klebsiella pneumoniae MITC95 [4]: 3.125 µM
Serratia marcescens MITC95 [5]: 1.563 µM
Concentration of metallo-β-lactamase inhibitor which restores susceptibility of efflux + (MB9798) strain to imipenem [6]: 1.563

C[C@@H](N)CNS(=O)(=O)c1ccc(-c2ccc3nccn3c2)c(-c2nn[nH]n2)c1S(N)(=O)=O [Example 423]
Concentration of metallo-β-lactamase inhibitor which restores susceptibility of efflux − (MB9799) strain to imipenem [1]: 0.7813
pIC50 (VIM-1; VIM-1 IC50, fluorescence assay): 9.74
Efflux ratio [2]: 4.00
pIC50 (NDM-1): 9.52
pIC50 (IMP-1): 8.94
Escherichia coli MITC95 [3]: 0.3906 µM
Klebsiella pneumoniae MITC95 [4]: 1.563 µM
Serratia marcescens MITC95 [5]: 0.7813 µM
Concentration of metallo-β-lactamase inhibitor which restores susceptibility of efflux + (MB9798) strain to imipenem [6]: 3.125

Nc1nc2c(-c3ccc(S(=O)(=O)N[C@@H]4CNC[C@H]4N)c(S(N)(=O)=O)c3-c3nn[nH]n3)cccc2[nH]1 [Example 424]
Concentration of metallo-β-lactamase inhibitor which restores susceptibility of efflux − (MB9799) strain to imipenem [1]: 1.563
pIC50 (VIM-1; VIM-1 IC50, fluorescence assay): 9.52
Efflux ratio [2]: 1.00
pIC50 (NDM-1): 10.06
pIC50 (IMP-1): 9.09
Escherichia coli MITC95 [3]: 0.7813 µM
Klebsiella pneumoniae MITC95 [4]: 1.563 µM
Serratia marcescens MITC95 [5]: 1.563 µM
Concentration of metallo-β-lactamase inhibitor which restores susceptibility of efflux + (MB9798) strain to imipenem [6]: 1.563

NC[C@@H]1C[C@@H](NS(=O)(=O)c2ccc(-c3cccc4[nH]c(N)nc34)c(-c3nn[nH]n3)c2S(N)(=O)=O)CN1 [Example 425, 4-(2-amino-1H-benzo[d]imidazol-4-yl)-N^1-((3R,5S)-5-(aminomethyl)pyrrolidin-3-yl)-3-(2H-tetrazol-5-yl)benzene-1,2-disulfonamide]
Concentration of metallo-β-lactamase inhibitor which restores susceptibility of efflux − (MB9799) strain to imipenem [1]: 1.563
pIC50 (VIM-1; [7]): 9.80
Efflux ratio [2]: 1.00
pIC50 (NDM-1): 10.38
pIC50 (IMP-1): 9.05
Escherichia coli MITC95 [3]: 0.7813 µM
Klebsiella pneumoniae MITC95 [4]: 3.125 µM
Serratia marcescens MITC95 [5]: 3.125 µM
Concentration of metallo-β-lactamase inhibitor which restores susceptibility of efflux + (MB9798) strain to imipenem [6]: 1.563

NC[C@@H](CO)NS(=O)(=O)c1ccc(-c2cccc3[nH]c(N)nc23)c(-c2nnn[nH]2)c1S(N)(=O)=O [Example 426, (S)-4-(2-Amino-1H-benzo[d]imidazol-4-yl)-N^1-(1-amino-3-hydroxypropan-2-yl)-3-(1H-tetrazol-5-yl)benzene-1,2-disulfonamide]
Concentration of metallo-β-lactamase inhibitor which restores susceptibility of efflux − (MB9799) strain to imipenem [1]: 0.7813
pIC50 (VIM-1; [7]): 9.78
Efflux ratio [2]: 0.50
pIC50 (NDM-1): 10.49
pIC50 (IMP-1): 9.56
Escherichia coli MITC95 [3]: 0.3906 µM
Klebsiella pneumoniae MITC95 [4]: 1.563 µM
Serratia marcescens MITC95 [5]: 0.7813 µM
Concentration of metallo-β-lactamase inhibitor which restores susceptibility of efflux + (MB9798) strain to imipenem [6]: 0.3906

NC[C@H](CO)NS(=O)(=O)c1ccc(-c2cccc3nc(N)[nH]c23)c(-c2nn[nH]n2)c1S(N)(=O)=O [Example 427]
Concentration of metallo-β-lactamase inhibitor which restores susceptibility of efflux − (MB9799) strain to imipenem [1]: 0.7813
pIC50 (VIM-1; [7]): 9.26
Efflux ratio [2]: 1.00
pIC50 (NDM-1): 9.66
pIC50 (IMP-1): 8.58
Escherichia coli MITC95 [3]: 0.3906 µM
Klebsiella pneumoniae MITC95 [4]: 1.563 µM
Serratia marcescens MITC95 [5]: 0.7813 µM
Concentration of metallo-β-lactamase inhibitor which restores susceptibility of efflux + (MB9798) strain to imipenem [6]: 0.7813

Reference: patent US10221163B2 (priority 2015, dated 2019)
